Literature values in patent US20090193593A1, “METHOD FOR REFRESHING FABRIC ARTICLES” (priority 2008, published 2009).
Counter-ions that a name gives are not always drawn.

For `OCCOc1ccccc1` [2-phenoxyethanol], the Solubility in water is given as “about 2.67%”.
In the case of `[H]/N=C(\N/C(=N/[H])NCCCCCCNC(=N)NC(=N)Nc1ccc(Cl)cc1)Nc1ccc(Cl)cc1` [chlorhexidine digluconate salt, 1,1′-hexamethylene bis(5-(p-chlorophenyl)biguanide), reference compound], the Solubility in water is given as “about 70%”.
For `OCc1ccccc1` [benzyl alcohol], the Solubility in water is given as “about 4%”.
For `[H]/N=C(\N/C(=N/[H])NCCCCCCNC(=N)NC(=N)Nc1ccc(Cl)cc1)Nc1ccc(Cl)cc1` [chlorhexidine diacetate salt, 1,1′-hexamethylene bis(5-(p-chlorophenyl)biguanide), reference compound], the Solubility in water is given as “about 1.8%”.
For `OCCc1ccccc1` [2-phenylethanol], the Solubility in water is given as “about 2%”.
